# Test results as given in patent US20240207159A1, “SKIN PENETRATION IMPROVER” (KANEKA CORPORATION, priority 2021, published 2024).
# Experiments:
# Assay type in all cases: in vitro ADME, human
# [1] = Transdermal absorption test of water-soluble fluorescent dye (Franz diffusion cell, fluorescence microscopy of frozen section); conditions: 6 hours
# Experimental: A circle human skin sample having a thickness of about 700 μm was attached to a test cell of an In vitro transdermal penetration test device (“TransView C12” manufactured by CosMED). The test cell was an open system Franz diffusion cell having an effective diameter of 1.7 cm, an area of 2.27 cm^2 and a receptor liquid volume of 5.75 mL. An electrical resistance value was measured to confirm that there was not any problems with the sample. Then, the test cell was filled with a phosphate buffer solution of pH 7.0 as a receptor liquid. The phosphate buffer solution of pH 7.01 (500 μL) containing 1.5 mass % surfactin sodium salt (SF), 1 mass % phospholipid (DMPC: 1,2-dimyristoyl-sn-glycero-3-phosphocholine) and 10 mM water-soluble fluorescent dye (calcein) was applied to the skin sample, and the skin sample was installed at the test device of which temperature was maintained at 32° ° C. to start the test.
# In addition, similar tests were conducted for comparison using a PBS solution of pH 7.09 containing 10 mM water-soluble fluorescent dye, a PBS solution of pH 6.99 containing 10 mM water-soluble fluorescent dye+1.5 mass % SF, and a PBS solution of pH 7.08 containing 10 mM water-soluble fluorescent dye+1 mass % phospholipid.
# The skin sample was cut 6 hours after the start of the test, embedded in O. C. T. Compound, cooled using cooled acetone to be frozen, and sliced to prepare a frozen section. The cut surface was observed using a fluorescence microscope. Separately, the used human skin sample was dyed using hematoxylin-eosin and observed under magnification.
# The result of the human skin sample is shown in FIG. 1, the result of the 10 mM water-soluble fluorescent dye PBS solution is shown in FIG. 2A, the result of the 10 mM water-soluble fluorescent dye+1.5 mass % SF PBS solution is shown in FIG. 2B, the result of the 10 mM water-soluble fluorescent dye+1 mass % phospholipid PBS solution is shown in FIG. 2C, and the result of the 10 mM water-soluble fluorescent dye+1 mass % phospholipid+1.5 mass % SF PBS solution is shown in FIG. 2D.
# [2] = Transdermal absorption test using cosmetics component (Franz diffusion cell, tape stripping, HPLC); conditions: for Penetration amount into epidermis/dermis (%) / Penetration amount into stratum corneum (%) / Wiping + first layer (%): 2 mg/cm^2, 6 hours; for Penetration amount into epidermis/dermis (%) / Penetration amount into stratum corneum (%) / Wiping + first layer (%) / Passing amount (%): ratio to 100 as total retrieved amount; for Passing amount (%): receptor liquid, 6 hours; for skin penetration property into the skin: combination of surfactin and a phospholipid in comparison with the aqueous solution
# Experimental: The skin penetration properties of niacinamide and arbutin, which are often mixed in cosmetics as active ingredients, were evaluated by a similar test to Example 1. A circle human skin sample having a thickness of about 700 μm was attached to a test cell of an In vitro transdermal penetration test device (“TransView C12” manufactured by CosMED). The test cell is an open system Franz diffusion cell having an effective diameter of 2.0 cm, an area of 3.14 cm- and a receptor liquid volume of 2.4 mL. An electrical resistance value was measured to confirm that there were not any problems with the sample. Then, the test cell was filled with a phosphate buffer solution of pH 7.0 as a receptor liquid. The phosphate buffer solution of pH 7.0 containing 2 mass % surfactin sodium salt (SF), 1 mass % natural lecithin and 5 mass % active ingredient was applied to the skin sample at a rate of 2 mg/cm^2, and the skin sample was installed at the test device of which temperature was maintained at 32° C. to start the test. A phosphate buffer solution containing 5 mass % active ingredient was concurrently subjected to the test as control.
# (§1) The skin sample was taken out of the test cell 6 hours after the start of the test, and the surface was wiped using cotton. Then, the first round of tape stripping, hereinafter referred to as “TS”, was conducted using a dedicated tape, hereinafter referred to as “tape”. Specifically, the tape was attached to the skin sample and then peeled. A mixed solvent (15 mL) of ethanol:water=1:1 by v/v was added thereto, and ultrasonic wave was applied to the mixture for 1 hour for extraction. The obtained liquid was retrieved, and the above-described mixed solvent was added thereto to adjust the total amount to 20 mL as an analytic sample of “wiping+first layer”.
# (§2) Then, the second or later round of TS were conducted. The number of the total times of TS was 15 at a maximum, and the number of times was adjusted depending on the condition of the skin sample surface. The tapes of second or later round were combined, and the extraction using aqueous ethanol and the total amount adjustment were conducted in a similar condition to the above to prepare an analytic sample of “penetration amount into stratum corneum”.
# (§3) In addition, the remaining skin sample was finely cut and divided into two tubes for crushing. Water (0.5 mL) was added into each tube, and the skin was crushed using a crushing machine for 20 minutes. The liquid containing the crushed skin was retrieved from two tubes into one centrifuge test. Then, ethanol (12 mL) was added thereto, and the mixture was efficiently stirred and centrifuged to obtain a supernatant. Water was added to the obtained supernatant to adjust the total amount to 20 mL to prepare an analytic sample of “penetration amount into epidermis/dermis”.
# (§4) The receptor liquid was also retrieved, and water was added thereto to adjust the total amount to 20 mL to prepare an analytic sample of “passing amount”. The amounts of each active ingredient in each obtained solution were measured by HPLC.
# The amounts of the active ingredients retrieved from each sample of the above-described “wiping+first layer”, “penetration amount into stratum corneum”, “penetration amount into epidermis/dermis” are shown in Table 1 as ratios to 100 as the total amount retrieved from 4 samples.
# [3] = Effect of concentrations of phospholipid and surfactin on penetration of active ingredient (transdermal absorption test); conditions: 5 mass % niacinamide
# Experimental: A circle human skin sample having a thickness of about 700 μm was attached to a test cell of an In vitro transdermal penetration test device (“TransView C12” manufactured by CosMED). The test cell is an open system Franz diffusion cell having an effective diameter of 2.0 cm, an area of 3.14 cm- and a receptor liquid volume of 2.4 mL. An electrical resistance value was measured to confirm that there were not any problems with the sample. Then, the test cell was filled with a phosphate buffer solution of pH 7.0 as a receptor liquid. The phosphate buffer solution of pH 7.0 containing 2 mass % surfactin sodium salt (SF), 1 mass % natural lecithin and 5 mass % active ingredient was applied to the skin sample at a rate of 2 mg/cm^2, and the skin sample was installed at the test device of which temperature was maintained at 32° C. to start the test.
# as §1, §2, §3, §4
# The condition of Example 2 was used as a benchmark of the concentrations of a phospholipid and surfactin in the samples applied to the skin, and the concentration, the ½ concentration thereof and the 1/10 concentration thereof were tested. All of the concentrations of niacinamide in the samples were adjusted to 5 mass %. The ratio of the active ingredient amounts in each sample to 100 of the total retrieved amount are shown.
# [4] = Control: phosphate buffer solution containing 5 mass % active ingredient, 32 °C
# [5] = Control: phosphate buffer solution containing 5 mass % active ingredient
# [6] = Example: 2 mass % SF + 1 mass % natural lecithin + 5 mass % active ingredient, phosphate buffer pH 7.0
# [7] = Example: 2 mass % surfactin sodium salt (SF) + 1 mass % natural lecithin + 5 mass % active ingredient, phosphate buffer pH 7.0
# [8] = 1/10 conc. of phospholipid and surfactin of Example 2
# [9] = Control, ratio to 100 of total retrieved amount
# [10] = Example: phospholipid and surfactin at the concentration of Example 2
# [11] = ½ conc. of phospholipid and surfactin of Example 2
smiles,measurement,setting,value
"O=C(O)CN(CC(=O)O)Cc1cc2c(cc1O)Oc1cc(O)c(CN(CC(=O)O)CC(=O)O)cc1C21OC(=O)c2ccccc21 [water-soluble fluorescent dye, calcein]","skin penetration of the water-soluble fluorescent dye (fluorescence microscope, cut surface)","[1]; PBS solution pH 6.99, 10 mM dye + 1.5 mass % SF (surfactin sodium salt), FIG. 2B",reached deeper epidermal tissue than the stratum corneum but mainly remained in the stratum corneum
same,"skin penetration of the water-soluble fluorescent dye (fluorescence microscope, cut surface)","[1]; PBS solution pH 7.08, 10 mM dye + 1 mass % phospholipid (DMPC), FIG. 2C",reached deeper epidermal tissue than the stratum corneum but mainly remained in the stratum corneum
same,"skin penetration of the water-soluble fluorescent dye (fluorescence microscope, cut surface)","[1]; PBS solution pH 7.09, 10 mM dye only, 32 °C, FIG. 2A",remained on the surface and could not infiltrate the deeper area than the stratum corneum
same,"skin penetration of the water-soluble fluorescent dye (fluorescence microscope, cut surface)","[1]; phosphate buffer pH 7.01, 10 mM dye + 1 mass % phospholipid (DMPC) + 1.5 mass % SF, FIG. 2D",clearly infiltrated the epidermal tissue and also reached the dermis
"OC[C@H]1O[C@@H](Oc2ccc(O)cc2)[C@H](O)[C@@H](O)[C@@H]1O [Arbutin, arbutin]",Penetration amount into epidermis/dermis (%),[2]; [4],0%
same,Penetration amount into stratum corneum (%),[2]; [4],5%
same,Wiping + first layer (%),[2]; [4],95%
same,Passing amount (%),[2]; [5],0%
same,Penetration amount into epidermis/dermis (%),[2]; [6],23%
same,Penetration amount into stratum corneum (%),[2]; [6],25%
same,Passing amount (%),[2]; [6],0%
same,Wiping + first layer (%),[2]; [7],52%
same,skin penetration property into the skin,[2],remarkably improved
"NC(=O)c1cccnc1 [Niacinamide, niacinamide]",Penetration amount into epidermis/dermis (%),[2]; [4],5%
same,Penetration amount into stratum corneum (%),[2]; [4],7%
same,Wiping + first layer (%),[2]; [4],89%
same,Passing amount (%),[2]; [5],0%
same,Penetration amount into epidermis/dermis (%),[2]; [6],37%
same,Penetration amount into stratum corneum (%),[2]; [6],39%
same,Passing amount (%),[2]; [6],0%
same,Wiping + first layer (%),[2]; [7],24%
same,skin penetration property into the skin,[2],remarkably improved
same,Passing amount (%),[3]; [8],15%
same,Penetration amount into epidermis/dermis (%),[3]; [8],18%
same,Penetration amount into stratum corneum (%),[3]; [8],26%
same,Wiping + first layer (%),[3]; [8],41%
same,Passing amount (%),[3]; [9],15%
same,Penetration amount into epidermis/dermis (%),[3]; [9],8%
same,Penetration amount into stratum corneum (%),[3]; [9],11%
same,Wiping + first layer (%),[3]; [9],65%
same,Passing amount (%),[3]; [10],39%
same,Penetration amount into epidermis/dermis (%),[3]; [10],18%
same,Penetration amount into stratum corneum (%),[3]; [10],23%
same,Wiping + first layer (%),[3]; [10],19%
same,Passing amount (%),[3]; [11],15%
same,Penetration amount into epidermis/dermis (%),[3]; [11],18%
same,Penetration amount into stratum corneum (%),[3]; [11],23%
same,Wiping + first layer (%),[3]; [11],44%
